Square brackets hold non-standard residues; d marks the D form. Ends that are not written are not given here. Tyr(3-NO2) = N[C@@H](Cc1ccc(O)c([N+](=O)[O-])c1)C(=O)O

The record followed here is US20170320939A1, “COLL2-1 PEPTIDE AND ITS NITRATED FORM AS THERAPEUTIC TARGETS FOR OSTEOARTHRITIS TREATMENT” (Université de Liège, priority 2014, published 2017).

For one test, the system named is NF-κB. Kind of test: NF-κB activation, Western blotting of phospho-p65 and phospho-IκBα. The test is classed as cell-based. Conditions: oxidative stress inhibitors: apocynin 0.2 mM and diphenyleneiodonium 6.35 10^−2 mM. The procedure:
Western blotting. Cells were collected at 4° C. and lysed on ice in 50 μl of buffer (25 mM Hepes, 150 mM NaCl, 0.5% Triton X-100, 10% glycerol, and 1 mM dithiothreitol) containing protease and phosphatase inhibitors. After incubation at 4° C. for 30 minutes, lysates were then centrifugated at 14,000 g for 30 minutes at 4° C. to remove insoluble debris. Protein concentrations were determined using BCA assay. Total protein extracts (10 μg) were fractioned by electrophoresis on a polyacrylamide gel (10%) and transferred onto a PVDF membrane. Membrane were blocked for 1 h in TBS-Tween containing 2% bovine serum albumin (phosphor-NF-κB p65 and phospho-IκBα). Membranes were then incubated overnight at 4° C. with primary antibodies. Anti-rabbit phospho-NF-κB p65 (1:1000 dilution), anti-rabbit phospho-IκBα (1:1000 dilution) were used. Horse-radish peroxidase (HRP)-linked anti-rabbit IgG antibody (1:2000 dilution) was used as secondary antibody.

A further test has as its target T1, TLR-4 (Homo sapiens, UniProt O00206).
T1 construct: endogenous in cells; host or cells: osteoarthritic synoviocytes (synovial fibroblast cells)
Briefly: Inhibition of TLR-4 receptor: IL-8 expression by osteoarthritic synoviocytes. In kind it is cell-based. Conditions: 1 hour pre-treatment with CLI-095 (500 nM, 1 and 2.5 μM), then 24 hours Coll2-1 at 4.5 nmol. The source says:
(§1) 1.4 RNA extraction and Real Time Reverse Transcriptase-Polymerase Chain Reaction (RT PCR). Total RNA were extracted using the RNeasy Mini Kit (Qiagen, Netherlands) and were reverse transcribed with SuperScript III Reverse Transcriptase (Invitrogen, Belgium) according to the manufacturer's instructions. The cDNAs were quantified by real-time quantitative PCR using the Rotor Gene instrument (Qiagen, Venlo, Netherlands) and the SYBR Premix Ex Taq kit (Takara, Verviers, Belgium). The level of gene expression was determined by interpolation with a standard curve. To standardize mRNA levels, HPRT, a house keeping gene, was amplified as an internal control. The oligonucleotide primers sequences were as follow: HPRT forward, 5′-[…]-3′ (SEQ ID NO: 2); HPRT reverse, 5′-TGCCTGACCAAGGAAAGC-3′ (SEQ ID NO: 3); TSP-1 forward, 5′-CAGACCGCATTGGAGATAC-3′ (SEQ ID NO: 4); TSP-1 reverse, 5′-[…]-3′ (SEQ ID NO: 5); VEGF forward, 5′-TGCCTTGCTGCTCTAC-3′ (SEQ ID NO: 6); VEGF reverse, 5′-CACACAGGATGGCTTGAA-3′ (SEQ ID NO: 7); IL-6 forward, 5′-AAACAAATTCGGTACATCCTCG-3′ (SEQ ID NO: 8); IL-6 reverse, 5′-CCA GGC AAG TCT CCT CAT-3′ (SEQ ID NO: 9); IL-8 forward, 5′-GGAACCATCTCACTGTGTGTAA-3′ (SEQ ID NO: 10); IL-8 reverse, 5′-TGGAAAGGTTTGGAGTATGTCT-3′ (SEQ ID NO: 11).
Inhibition of TLR-4 receptor. […]

The subject of test [1] is OA synovial fibroblast cells. Kind of test: Intracellular H2O2 production in OA synovial fibroblast cells. Conditions: 24 hours. In kind it is cell-based, human. The procedure:
(§2) 1.1 Patients. Synovial tissue samples were obtained from 10 patients (8 women, 2 man; mean age 70 +/−6 years) with osteoarthritis (OA) of the knee at the time of total knee joint replacement surgery. All the subjects provided their informed consent.
(§3) 1.2 Isolation and culture of synovial cells. Synovium biopsies were digested is with collagenase from Clostridium histolyticum, Type IA (1 mg/ml) (Sigma-Aldrich, Saint-Louis, USA) and 0.25% trypsin (Sigma Aldrich, Saint Louis, USA) with 0.68 mM EDTA in Tris buffer 0.1M, pH 7.4 in complete medium (CM) (DMEM (Dulbecco's Modified Eagle's Medium) Low Glucose supplemented with 10 mM HEPES, 100 U/ml penicillin, 100 μg/ml streptomycin, 2 mM glutamine and 10% fetal calf serum (Lonza, Verviers, Belgium)) for 1 hour at 37° C. The cells suspensions were passed through a 70-μm filter to remove any undigested tissue. The filtered cells suspensions were then collected by centrifugation at 800 g and were cultured in culture flasks. After 24 hours, medium was changed to eliminate non adherent cells. Synovial fibroblasts cells (SFC) were used after three passages.
(§4) 1.3 Treatment of synovial fibroblast cells. Cells were seeded into a six-well plate at the density of 2×10^5 cells/well in 2 ml of CM. When the cells reached confluence, the CM was replaced with 1% serum medium for 24 h to keep the cells quiescent. Cells were incubated for 24 hours with or without peptides Coll2-1 (^108HRGYPGLDG^116; 0.45 and 4.5 nmol) or Coll2-1NO2 (^108HRGYPGLDG-NO2^116; 4 and 40 pmol) at a range of concentrations found in the blood of osteoarthritic patients.
1.5 Intracellular H2O2 and O2^∘^− productions. Levels of intracellular superoxide anion (O2^∘^−) and hydrogen peroxide (H2O2) were assessed spectrofluorimetrically by oxidation of specific probes: dihydroethidium (Molecular Probes, Leiden, The Netherlands) and H2DCFH-DA (Molecular Probes, Leiden, The Netherlands) respectively. Synovial cells seeded on 96-well plates (8×10^3 cells per well) were washed once with phosphate-buffered saline and then incubated with 50 μL of phosphate-buffered saline containing either 250 μM dihydroethidium or 200 μM H2DCFH-DA. The fluorescence intensity was measured every hour for 6 hours. The levels of O2^∘^− or H2O2 are expressed in arbitrary unit/living cell. The numbers of adherent cells were measured by crystal violet assay.

Test [2] deals with OA synovial fibroblast cells. Briefly: Intracellular GSH assay in OA synovial fibroblast cells. The test is classed as cell-based, human. Conditions: Coll2-1NO2 at 4 and 40 pmol, 24 hours. The procedure:
as §2
as §3, with “passages. […]” for “passages.”
1.6 GSH assay. Levels of intracellular GSH were assessed by monoclorobimane staining. […] The fluorescence intensities were measured at […] using excitation and emission wavelengths of 380 and 485 nm, respectively. The intracellular GSH level was expressed as arbitrary units of fluorescence intensity.

In test [3] the test system is OA synovial fibroblast cells. Kind of test: NO production in OA synovial fibroblast cells. The test is classed as cell-based, human. Conditions: Coll2-1 (0.45 and 4.5 nmol) or Coll2-1NO2 (4 and 40 pmol), 24 hours. As for the experimental part: as §2
as §3, with “passages. […]” for “passages.”
1.7 NO production. Nitric oxide production was evaluated using a DAF2-DA fluorescent probe (Molecular Probes, Leiden, The Netherlands). […] The fluorescence intensity was measured every hour for 6 hours. […] The numbers of adherent cells were measured by cristal violet assay.

The test system of another test is TSP1. Kind of test: TSP1 mRNA expression by Real Time PCR in OA synovial fibroblast cells. The test is classed as cell-based, human. Conditions: 24 hours. The procedure: as §4, §1
A further test deals with VEGF. Briefly: VEGF mRNA expression by Real Time PCR in OA synovial fibroblast cells. The test is classed as cell-based, human. Conditions: increasing concentrations: Coll2-1 (0.45 and 4.5 nmol) or Coll2-1NO2 (4 and 40 pmol), 24 hours. The procedure:
as §4
(§5) 1.4 RNA extraction and Real Time Reverse Transcriptase-Polymerase Chain Reaction (RT PCR). Total RNA were extracted using the RNeasy Mini Kit (Qiagen, Netherlands) and were reverse transcribed with SuperScript III Reverse Transcriptase (Invitrogen, Belgium) according to the manufacturer's instructions. The cDNAs were quantified by real-time quantitative PCR using the Rotor Gene instrument (Qiagen, Venlo, Netherlands) and the SYBR Premix Ex Taq kit (Takara, Verviers, Belgium). The level of gene expression was determined by interpolation with a standard curve. To standardize mRNA levels, HPRT, a house keeping gene, was amplified as an internal control. […]

For a further test, the system named is IL-8. Kind of test: IL-8 mRNA expression by Real Time PCR in OA synovial fibroblast cells. Conditions: increasing concentrations: Coll2-1 (0.45 and 4.5 nmol) or Coll2-1NO2 (4 and 40 pmol), 24 hours. In kind it is cell-based, human. The procedure: as §4, §1
Another test concerns IL-6. Kind of test: IL-6 mRNA expression by Real Time PCR in OA synovial fibroblast cells. The test is classed as cell-based, human. Conditions: increasing concentrations of peptide, 24 hours. The procedure: as §4, §5

T1 sequence (O00206 24-839): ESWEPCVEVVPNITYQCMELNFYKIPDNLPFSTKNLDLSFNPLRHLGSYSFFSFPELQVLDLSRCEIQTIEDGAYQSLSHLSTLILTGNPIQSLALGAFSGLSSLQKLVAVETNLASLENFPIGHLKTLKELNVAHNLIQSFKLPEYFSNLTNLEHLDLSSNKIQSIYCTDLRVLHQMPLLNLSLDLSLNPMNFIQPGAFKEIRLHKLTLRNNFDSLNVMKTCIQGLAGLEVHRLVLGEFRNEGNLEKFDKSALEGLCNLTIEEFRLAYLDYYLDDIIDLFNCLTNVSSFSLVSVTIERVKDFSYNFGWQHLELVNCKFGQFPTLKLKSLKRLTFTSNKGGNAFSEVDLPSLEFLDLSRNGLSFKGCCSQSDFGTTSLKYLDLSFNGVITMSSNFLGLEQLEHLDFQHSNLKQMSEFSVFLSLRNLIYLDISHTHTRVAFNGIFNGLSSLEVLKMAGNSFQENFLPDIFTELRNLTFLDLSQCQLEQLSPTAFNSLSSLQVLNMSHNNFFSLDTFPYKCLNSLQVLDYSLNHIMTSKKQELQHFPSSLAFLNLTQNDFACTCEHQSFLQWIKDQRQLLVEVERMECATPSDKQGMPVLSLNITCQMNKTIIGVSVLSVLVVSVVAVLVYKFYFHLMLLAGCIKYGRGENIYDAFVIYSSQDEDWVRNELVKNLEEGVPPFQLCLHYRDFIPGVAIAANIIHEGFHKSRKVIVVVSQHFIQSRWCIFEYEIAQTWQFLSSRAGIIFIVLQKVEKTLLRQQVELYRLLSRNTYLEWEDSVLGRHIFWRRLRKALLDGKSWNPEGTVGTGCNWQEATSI

`c1ccc2c(c1)[I+]c1ccccc1-2` [diphenyleneiodonium]: in the test with NF-κB, the “Coll2-1 induced IκBα degradation” value was “decreased”; the “Coll2-1 induced phosphorylation and translocation of p65” value was “inhibited”.

As to `CCOC(=O)C1=CCCC[C@H]1S(=O)(=O)Nc1ccc(F)cc1Cl` [CLI-095], the “IL-8 expression by osteoarthritic synoviocytes in the presence of Coll2-1” value on TLR-4 is reported as “decrease”.

Regarding “HRGY(NO2)PGLDG (HRG[Tyr(3-NO2)]PGLDG) [Coll2-1NO2, nitrated form of the Coll2-1 peptide]”, the “intracellular production of H2O2” value in test [1] (Coll2-1NO2 at 4 pmol) and in [1] (Coll2-1NO2 at 40 pmol) was “significantly increased” each time. In addition, the “intracellular level of GSH” value in test [2] was “significant decrease”. Moreover, the “production of NO (nitric oxide)” value in test [3] is listed as “decreased significantly”. Besides, in the test with TSP1 (Coll2-1NO2 at 40 pmol), the “decrease of TSP1 expression, significance” value is recorded as “significant”. Moreover, the TSP1 expression entry with TSP1 (increasing concentrations: Coll2-1 (0.45 and 4.5 nmol) or Coll2-1NO2 (4 and 40 pmol)) is “decreased”. In the test on VEGF, the VEGF expression result is listed as “tended to increase”. Besides, the IL-8 expression entry with IL-8 is recorded as “increased”. Moreover, the IL-6 expression result with IL-6 is listed as “increased”.

For `COc1cc(C(C)=O)ccc1O` [apocynin], in the test with NF-κB, the “Coll2-1 induced IκBα degradation” value is on record as “decreased”; the “Coll2-1 induced phosphorylation and translocation of p65” value is reported as “inhibited”.
